Source: patent US20220031736A1, “USE OF ANIONIC CLAY IN PREPARING LEAD-REMOVING MEDICINE” (priority 2019, published 2022)
“And” between values parts separate entries of the source, which are not always exact repeats. Identical values can stand only once.

System: rats with chronic lead poisoning
Assay: Chronic rat lead poisoning model, administration for treatment
Format: in vivo
Method: After the model was successfully established, the lead was stopped and the rates were fed with distilled water from the 31st day. […] The rats in the positive medicine group were given a dose of 10 mg/kg of sodium dimercaptosuccinate by intragastric administration, and all the intragastric subjects were given in equal volume twice a day for 30 days. On the 60th day, blood samples were collected. Brain, liver and femur samples were collected and stored in liquid nitrogen for later use. After wet digestion, the blood samples and tissues of each group were tested for content of lead by inductively coupled plasma mass spectrometry (ICP-MS), and the lead-removing rates were counted.
All the data were processed by SPSS 20.0 statistical software. Every group of measurement data was expressed by mean±[…] (mean±SD), and all of which were tested for homogeneity of variance by Levene method first. If the variances were homogeneous, single factor analysis of variance was used among multiple groups, and two-sample T test was used between two groups. If the hypothesis of parameter test was unreasonable, Kruskal-Wallis test was used among multiple groups, while Wilcoxon test was used between two groups. p<0.05 or p<0.01 was statistically significant.
40 male SD rats were randomly divided into five groups including a normal group, a model group, a positive medicine group (sodium dimercaptosuccinate group), a high-dose magaldrate group and a low-dose magaldrate group according to their body weights, and each group included 8 rats. Except the rats in the normal group were given ultrapure water, the rats in the model group, the positive medicine group, and the magaldrate groups of each dose drank 0.5% lead acetate ultrapure water solution for 30 days, resulting in chronic lead-exposed models. After the model was successfully established, the lead was stopped and the rates were fed with distilled water from the 31st day. The rats in the normal group were given an equal volume of 0.5% CMC-Na solution by intragastric administration, while the rats in the high-dose magaldrate group and the low-dose magaldrate group were given a high dose of 0.6 g/kg and a low dose of 0.3 g/kg respectively by intragastric administration. The rats in the positive medicine group were given a dose of 10 mg/kg of sodium dimercaptosuccinate by intragastric administration, and all the intragastric subjects were given in equal volume twice a day for 30 days. On the 60th day, blood samples were collected. Brain, liver and femur samples were collected and stored in liquid nitrogen for later use. After wet digestion, the blood samples and tissues of each group were tested for content of lead by inductively coupled plasma mass spectrometry (ICP-MS), and the lead-removing rates were counted. […]

[1] = 60th day, positive medicine 0.01 g/kg intragastric twice a day for 30 days, mean ± SD

O=C([O-])C(S)C(S)C(=O)[O-].[Na+].[Na+] (stereo not shown) [Sodium dimercaptosuccinate, sodium dimercaptosuccinate]
Content of lead in blood [1]: 0.058 ± 0.01 µg/g and 0.069 ± 0.01 µg/g and 0.059 ± 0.01 µg/g and 0.073 ± 0.01 µg/g | Content of lead in brain [1]: 0.129 ± 0.03 µg/g and 0.218 ± 0.04 µg/g and 0.178 ± 0.04 µg/g and 0.165 ± 0.05 µg/g | Femur content of lead [1]: 32.085 ± 4.73 µg/g and 35.006 ± 3.92 µg/g and 28.075 ± 3.25 µg/g and 33.478 ± 4.86 µg/g | Removing rate, lead in bones (positive medicine group 10 mg/kg, versus model group): 0.00%
